Results: US20200078379A1, “DEFEROXAMINE DERIVATIVES AS MEDICAMENTS” (BIOTECHNOLOGICKY USTAV AV CR, V.V.I., priority 2017, published 2020)

Columns and labels:
MCF7 cells [1] = assay: AnnexinV/PI cell death assay; format: cell-based, human
Protocol: (§1) Briefly, cells were seeded in 12-well plate at 100,000 per well, incubated with the selected compounds for 48 hours, then floating cells were spun, adherent cells trypsinized and spun as well followed by the staining with AnnexinV-FITC and PI probes. Cells were then washed with PBS and measured via Fluorescence Activated Sorter.

non malignant cells (BJ) = assay: AnnexinV/PI cell death assay; format: cell-based
Protocol: as §1, with “To confirm such findings by an independent method, cell death-inducing potency (cytotoxic efficacy) of DFO and compound 2 have been tested via annexin V/PI staining commonly used as a measure of apoptotic/necrotic cell death. Briefly,” for “Briefly,”
We have then analyzed the percentage of death cells by the annexinV/PI staining as described in example 7. We have observed a significant potentiation in cell death induction when gallium was combined with compound 2 (Table 14)

MCF7 cells [2] = assay: crystal violet assay, cellular viability; format: cell-based, human
Protocol: (§2) Compound 1 and compound 2 were tested in their efficacy to kill malignant MCF7 cancer cells. Briefly, 10.000 cells per well were seeded in a 96-well plat on one day and the next day selected compounds were added and incubated with the cells for 48 hrs. The cells were then fixed with 4% paraformaldehyde, stained with 0.05% crystal violet, washed with PBS, and solubilized in 1% SDS. The absorbance of the plate at 595 nm was then measured, quantifying the number of viable cells.
(§3) A number of compounds of the present invention were tested for cytotoxicity towards at least some of human breast cancer cell lines (MCF7, MDA-MB-231), human fibroblast (BJ) and murine triple negative breast cancer cell line 4T1 (Table 2).

T47D cells [3] = assay: crystal violet assay, cellular viability; format: cell-based; conditions: 48 hours
[4] = system: non malignant cells (BJ), human fibroblast; assay: crystal violet assay, cellular viability; format: cell-based
Protocol: as §2, §3

T47D cells [5] = assay: AnnexinV/PI cell death assay; format: cell-based; conditions: 200 μM, 48 hrs
Protocol: as §1, with “To confirm such findings by an independent method, cell death-inducing potency (cytotoxic efficacy) of DFO and compound 2 have been tested via annexin V/PI staining commonly used as a measure of apoptotic/necrotic cell death. Briefly,” for “Briefly,”
Since compound 2 is an iron chelator, we have evaluated the effect of pretreating compound 2 with iron. at a 1:1 ratio by using the Annexin V/PI staining as in example 7.

BT474 cells = assay: AnnexinV/PI cell death assay; format: cell-based; conditions: BT474, 200 μM, 48 hrs
Protocol: as §1, with “To confirm such findings by an independent method, cell death-inducing potency (cytotoxic efficacy) of DFO and compound 2 have been tested via annexin V/PI staining commonly used as a measure of apoptotic/necrotic cell death. Briefly,” for “Briefly,”

BT549 cells = assay: AnnexinV/PI cell death assay; format: cell-based; conditions: BT549, 200 μM, 48 hrs
Protocol: as §1, with “To confirm such findings by an independent method, cell death-inducing potency (cytotoxic efficacy) of DFO and compound 2 have been tested via annexin V/PI staining commonly used as a measure of apoptotic/necrotic cell death. Briefly,” for “Briefly,”

MDA-MB-231 cells = assay: AnnexinV/PI cell death assay; format: cell-based, human; conditions: MDA-MB-231, 200 μM, 48 hrs
Protocol: as §1, with “To confirm such findings by an independent method, cell death-inducing potency (cytotoxic efficacy) of DFO and compound 2 have been tested via annexin V/PI staining commonly used as a measure of apoptotic/necrotic cell death. Briefly,” for “Briefly,”

MCF7 cells [6] = assay: cellular proliferation in real time, Xcelligence technology; format: cell-based
Protocol: The ability of compound 2 to affect the proliferation and cell death induction in real time was monitored by the Xcelligence technology that detects changes in electrical impedance related to the cell number. In brief, special 16-well e-plates containing gold electrodes were filled with medium, blank values were recorded, and then 5.000 cells per well were seeded in the plate and let to attach for 2 hours, followed by the addition of compounds. The electrical impedance was then monitored over time in real-time every 15 minutes. In this case a line is drawn that reflects the cell number over time. […] We have seen a clear inhibition of proliferation with compound 2 at 1 μM, complete block of proliferation at 2 μM concentration, while the cytotoxic effect is seen at 5 μM (Table 9).

[Cl][Ga]([Cl])[Cl] [GaCl3, gallium chloride, reference compound]
percentage of death cells by annexinV/PI staining (MCF7 cells [1]; MCF7, ratio Ga:compound 2 1:0, 5 μM gallium salt alone): 5.9 (2.5)
percentage of death cells by annexinV/PI staining (non malignant cells (BJ); ratio Ga:compound 2 1:0, 5 μM gallium salt alone): 2.4 (0.1)

CC(=O)N(O)CCCCCNC(=O)CCC(=O)N(O)CCCCCNC(=O)CCC(=O)N(O)CCCCCN [DFO, deferoxamine]
Selectivity index (IC50 non-malignant/IC50 malignant) (MCF7 cells [2]; BJ vs MCF7, 48 hours): 1.72
viability at 2 µM (MCF7 cells [2]; Homo sapiens, MCF7, 2 μM, 48 hrs, crystal violet, read-out: mean percentage of viable cells compared to non-treated controls): 92%
viability at 5 µM (MCF7 cells [2]; Homo sapiens, MCF7, 5 μM, 48 hrs, crystal violet, read-out: mean percentage of viable cells compared to non-treated controls): 95.9%
viability at 10 µM (MCF7 cells [2]; Homo sapiens, MCF7, 10 μM, 48 hrs, crystal violet, read-out: mean percentage of viable cells compared to non-treated controls): 92.2%
Selectivity index (IC50 non-malignant/IC50 malignant) (T47D cells [3]; BJ vs T47D): 0.80
IC50 (T47D cells [3]; Homo sapiens, T47D, crystal violet, read-out: IC50 cellular viability): 272 µM
Selectivity index (IC50 non-malignant/IC50 malignant) ([4]; BJ vs BJ (reference)): 1
IC50 ([4]; Homo sapiens, Fibroblast, BJ non malignant, 48 hours, crystal violet): 219 µM
mean percentage of dead cells (AnnexinV/PI) (MCF7 cells [1]; MCF7, 200 μM, 48 hrs): 45.0%
mean percentage of dead cells (AnnexinV/PI) (T47D cells [5]): 14.1 (7.2) %
mean percentage of dead cells (AnnexinV/PI) (BT474 cells): 19.2%
mean percentage of dead cells (AnnexinV/PI) (BT549 cells): 18.3%
mean percentage of dead cells (AnnexinV/PI) (MDA-MB-231 cells): 22.4%
mean percentage of dead cells (AnnexinV/PI) (non malignant cells (BJ); 200 μM, 48 hrs): 10.5%
slope of the line (relative number of cells in relation to time) (MCF7 cells [6]; MCF7, 0-15 h, 1 μM): 1.02
slope of the line (relative number of cells in relation to time) (MCF7 cells [6]; MCF7, 0-15 h, 2 μM): 1.12
slope of the line (relative number of cells in relation to time) (MCF7 cells [6]; MCF7, 0-15 h, 5 μM): 1.01
slope of the line (relative number of cells in relation to time) (MCF7 cells [6]; MCF7, 0-36 h, 1 μM): 1.31
slope of the line (relative number of cells in relation to time) (MCF7 cells [6]; MCF7, 0-36 h, 2 μM): 1.53
slope of the line (relative number of cells in relation to time) (MCF7 cells [6]; MCF7, 0-36 h, 5 μM): 0.50
